For 13 compounds, IC50 results are on record in US20240174639A1, “PYRIDINE DERIVATIVES USEFUL AS HCN2 MODULATORS” (King's College London, priority 2021, published 2024).

Format in all cases: cell-based
Assay [1] concerns the target T1, HCN2 (Homo sapiens, UniProt Q9UL51).
T1 sequence (Q9UL51 1-889): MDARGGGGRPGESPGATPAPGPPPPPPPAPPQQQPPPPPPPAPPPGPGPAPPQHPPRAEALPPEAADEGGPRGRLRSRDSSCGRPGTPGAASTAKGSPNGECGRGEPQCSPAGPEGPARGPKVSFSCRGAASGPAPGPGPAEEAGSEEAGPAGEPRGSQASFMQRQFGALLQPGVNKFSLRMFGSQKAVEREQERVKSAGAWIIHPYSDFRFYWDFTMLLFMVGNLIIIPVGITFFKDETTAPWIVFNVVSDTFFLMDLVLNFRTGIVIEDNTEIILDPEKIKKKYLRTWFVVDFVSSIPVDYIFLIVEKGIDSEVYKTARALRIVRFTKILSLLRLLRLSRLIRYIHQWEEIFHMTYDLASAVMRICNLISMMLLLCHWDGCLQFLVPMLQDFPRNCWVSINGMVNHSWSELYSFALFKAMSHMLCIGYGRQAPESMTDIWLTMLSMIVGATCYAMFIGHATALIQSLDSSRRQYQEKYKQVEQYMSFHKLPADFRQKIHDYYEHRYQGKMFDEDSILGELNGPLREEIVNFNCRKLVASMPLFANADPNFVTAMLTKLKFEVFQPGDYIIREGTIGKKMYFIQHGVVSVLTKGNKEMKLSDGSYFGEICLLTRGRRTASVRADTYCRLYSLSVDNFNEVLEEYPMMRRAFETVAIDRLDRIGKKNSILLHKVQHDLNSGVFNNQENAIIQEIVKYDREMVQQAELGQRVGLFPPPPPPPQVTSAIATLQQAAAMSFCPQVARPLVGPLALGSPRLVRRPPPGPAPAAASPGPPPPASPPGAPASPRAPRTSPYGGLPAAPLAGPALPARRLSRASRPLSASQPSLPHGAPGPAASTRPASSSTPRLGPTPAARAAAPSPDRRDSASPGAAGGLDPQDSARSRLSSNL
Put plainly: HCN2 assay using PatchXpress 7000A (Example 50A). To be noted: PatchXpress protocol (PX). An excerpt: (§1) Solutions for recording HON currents were:
For HCN1 and HCN2, the pulse protocol involved stepping from a holding potential of −30 mV to −110 mV (see FIG. 1A) for 2 seconds to evoke the current. The membrane voltage was then stepped back to −30 mV for a further 8 seconds. This sequence was evoked repeatedly every 10 seconds throughout the experiment, starting prior to drug (Control A) and during cumulative additions of 5 increasing compound concentrations, then finally a 100% inhibiting concentration of cesium chloride (CsCl, 3 mM).
(§2) The peak inward current measured at the end of the pulse to −110 mV (HCN1 and HCN2) or −130 mV (HCN4) was measured and any leak current subtracted to calculate the HCN current. The HCN current amplitude was measured after each control or compound addition and normalized to the control amplitude (Control A).
(§3) All experiments were performed at room temperature (approximately 22° C.).
(§4) Each test compound concentration was applied to the cell for seven (7) minutes, at which point the next cumulative concentration was applied. 3 mM CsCl was applied to each cell for 2 minutes at the end of each experiment (Control B) to determine 100% inhibition level of the HCN current.

The target in a further assay is T2, HCN4 (Homo sapiens, UniProt Q9Y3Q4).
T2 sequence (Q9Y3Q4 1-1203): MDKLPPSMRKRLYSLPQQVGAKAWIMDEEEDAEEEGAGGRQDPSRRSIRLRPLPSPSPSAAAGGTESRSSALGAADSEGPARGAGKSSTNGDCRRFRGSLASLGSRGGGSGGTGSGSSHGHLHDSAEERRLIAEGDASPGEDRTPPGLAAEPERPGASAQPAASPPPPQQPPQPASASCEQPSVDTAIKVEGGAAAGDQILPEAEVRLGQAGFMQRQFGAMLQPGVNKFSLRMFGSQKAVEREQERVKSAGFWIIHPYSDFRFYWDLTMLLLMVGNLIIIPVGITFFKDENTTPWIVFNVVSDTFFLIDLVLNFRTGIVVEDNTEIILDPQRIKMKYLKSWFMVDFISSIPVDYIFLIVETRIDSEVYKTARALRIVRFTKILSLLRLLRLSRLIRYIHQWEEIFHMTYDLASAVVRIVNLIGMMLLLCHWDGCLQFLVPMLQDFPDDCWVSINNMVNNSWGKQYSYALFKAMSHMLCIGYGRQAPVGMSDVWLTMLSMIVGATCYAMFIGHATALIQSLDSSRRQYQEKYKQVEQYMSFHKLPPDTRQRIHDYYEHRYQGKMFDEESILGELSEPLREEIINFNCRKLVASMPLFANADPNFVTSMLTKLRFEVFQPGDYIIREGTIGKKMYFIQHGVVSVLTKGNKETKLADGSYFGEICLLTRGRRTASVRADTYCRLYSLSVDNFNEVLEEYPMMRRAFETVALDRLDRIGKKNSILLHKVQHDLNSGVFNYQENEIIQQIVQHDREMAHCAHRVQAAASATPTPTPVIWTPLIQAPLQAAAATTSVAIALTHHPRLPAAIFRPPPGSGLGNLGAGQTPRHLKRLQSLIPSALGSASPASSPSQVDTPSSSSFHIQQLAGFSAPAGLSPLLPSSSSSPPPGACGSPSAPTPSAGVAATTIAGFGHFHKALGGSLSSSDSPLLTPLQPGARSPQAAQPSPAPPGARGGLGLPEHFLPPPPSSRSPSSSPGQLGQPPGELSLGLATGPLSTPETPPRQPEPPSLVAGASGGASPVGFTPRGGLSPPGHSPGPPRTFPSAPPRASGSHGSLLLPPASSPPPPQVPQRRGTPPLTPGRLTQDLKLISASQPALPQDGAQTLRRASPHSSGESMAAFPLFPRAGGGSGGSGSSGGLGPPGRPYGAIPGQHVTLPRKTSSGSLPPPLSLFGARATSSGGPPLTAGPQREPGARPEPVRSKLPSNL
Put plainly: HCN4 assay using PatchXpress 7000A (Example 50A). As to conditions: PatchXpress protocol (PX). On the procedure: as §1
For HCN4, the pulse protocol involved stepping from a holding potential of −30 mV to −130 mV (see FIG. 1B) for 4 seconds to evoke the current.
as §2, §3, §4

Assay [2] concerns the target T1, HCN2. Put plainly: HCN2 assay using the Sophion Qube (Example 50B). To be noted: Sophion Qube protocol (SQ). How it is done:
Solutions for recording HCN currents were:
For HCN1 and HCN2 the cells were held at −30 mV and then stepped to −110 mV for 2 seconds before stepping back to −30 mV, this represents 1 experimental sweep. This voltage protocol was applied every 20 seconds for the duration of the experiment. Both the vehicle (0.3% DMSO) and full block (3 mM CsCl) addition periods were applied for 10 experimental sweeps each. The compound addition period was applied for 30 sweeps.
The currents evoked by the step to −110 mV (HCN1 and HCN2) or −130 mV (HCN4) were measured for the analysis of the percentage inhibition by test compounds. The current amplitudes were measured by subtracting metric A from metric B (see FIG. 2) with inhibition calculated by normalising to the vehicle addition (0.3% DMSO) and full inhibition by 3 mM CsCl in the same well.
In total, compound was applied to the well for 600 seconds.

Molecules are shown by their SMILES. Structures can show the parent of a compound that is named as a salt.

The term IC50 denotes the concentration that gives 50% inhibition. Regarding `N[C@@H](Cc1ccc(F)cn1)c1ncccc1-n1ncc2ccccc21` [Example 18, (S)-1-[3-(1H-indazole-1-yl)pyridine-2-yl]-2-(5-fluoropyridine-2-yl)-ethan-1-amine hydro-chloride], the IC50 against HCN2 [1] was determined as 0.5 µM; at HCN4 it was 11.7 µM. With `Cc1nc(C[C@H](N)c2ncccc2-n2ncc3ccccc32)ccc1F` [Example 20, (S)-1-[3-(1H-indazole-1-yl)pyridine-2-yl]-2-(5-fluoro-6-methyl-pyridine-2-yl)ethan-1-amine hydrochloride], the 50% inhibitory concentration (IC50) at HCN2 [1] amounted to 0.9 µM; against HCN4, 13 µM. Regarding `CS(=O)(=O)c1ccc(F)c(C[C@H](N)c2ncccc2-n2ncc3ccccc32)n1` [Example 21, (S)-1-[3-(1H-indazole-1-yl)pyridine-2-yl]-2-(3-fluoro-6-methyl-sulfonylpyridine-2-yl)-ethan-1-amine formate], the IC50 was 1.1 µM on HCN2 [1] and not below 30 µM against HCN4. The matching figures for `N#Cc1nc(C[C@H](N)c2ncccc2-n2ncc3ccccc32)ccc1F` [Example 22, (S)-6-{2-[3-(1H-ind-azol-1-yl)pyridine-2-yl]-2-aminoethyl}-3-fluoropyridine-2-carbonitrile hydro-chloride]: 0.32 µM and 13.4 µM. In the same order, the values of `N#Cc1ccc(F)c(C[C@H](N)c2ncccc2-n2ncc3ccccc32)n1` [Example 23, (S)-6-{2-[3-(1H-ind-azol-1-yl)pyridine-2-yl]-2-aminoethyl}-5-fluoropyridine-2-carbonitrile formate] are 0.18 µM and 7.5 µM. In the same order, the values of `CCc1ccc(F)c(C[C@H](N)c2ncccc2-n2ncc3ccccc32)n1` [Example 25, (S)-1-[3-(1H-indazole-1-yl)pyridine-2-yl]-2-(3-fluoro-6-ethylpyr-idine-2-yl)ethan-1-amine hydrochloride] are 0.34 µM and 1.6 µM.

With `Cc1cc(F)cnc1C[C@H](N)c1ncccc1-n1ncc2ccccc21` [Example 26, (S)-1-[3-(1H-indazole-1-yl)pyridine-2-yl]-2-(5-fluoro-3-methyl-pyridine-2-yl)ethan-1-amine hydrochloride], the half-maximal inhibitory concentration (IC50) at HCN2 [1] turned out to be 0.015 µM; on HCN4, 0.5 µM.

Consider `N[C@@H](Cc1ncccc1F)c1ncccc1-n1ncc2cc(F)ccc21` [Example 28, (S)-1-[3-(5-Fluoro-1H-indazole-1-yl)pyridine-2-yl]-2-(3-fluoropyr- -idine-2-yl)ethan-1-amine hydrochloride], for which the IC50 at HCN2 [1] is 1 µM; against HCN4, more than 30 µM. As to `COc1ccc2c(cnn2-c2cccnc2[C@@H](N)Cc2ncccc2F)c1` [Example 32, (S)-2-(3-fluoropyridine-2-yl)-1-[3-(5-methoxy-1H-indazole-1-yl)-pyridine-2-yl]ethan-1-amine hydrochloride], the concentration for half-maximal inhibition (IC50) at HCN2 [2] was 28.6 µM. This counts as double-digit micromolar.

`Cc1ccc(C#N)nc1C[C@H](N)c1ncccc1-n1ncc2cc(C(F)(F)F)ccc21` [Example 33, (S)-6-{2-Amino-2-[3-(5-trifluoromethyl-1H-indazol-1-yl)pyridine-2-yl]ethyl}-5-methyl-pyridine-2-carbonitrile hydrochloride] returned an IC50 on HCN2 [2] of 4.9 µM.

For `Cc1ccc(F)c(C[C@H](N)c2ncccc2-n2ncc3cc(F)ccc32)n1` [Example 34, (S)-1-[3-(5-Fluoro-1H-indazole-1-yl)pyridine-2-yl]-2-(3-fluoro-6-methylpyridine-2-yl)-ethan-1-amine hydro-chloride], on HCN2 [2], half-maximal inhibition (IC50) required 4.5 µM. The compound `COc1ccc2c(cnn2-c2cccnc2[C@@H](N)Cc2nc(C#N)ccc2F)c1` [Example 37] showed an IC50 on HCN2 [2] of 6.7 µM. The IC50 values of the last two compounds are within 1.5-fold of each other. In the case of `N[C@@H](Cc1ncccc1F)c1ncccc1-n1ncc2cc(C(F)(F)F)ccc21` [Example 40, (S)-1-[3-(5-Trifluoro-methyl-1H-indazole-1-yl)pyridine-2-yl]-2-(3-fluoropyridine-2-yl)-ethan-1-amine hydro-chloride], on HCN2 [2], the IC50 was 11.7 µM.
